Measured values taken from patent US6808877B2, “Ligands for FPR class receptors that induce a host immune response to a pathogen or inhibit HIV infection” (priority 2000, dated 2004).
Where no end group is shown, it is not given here.

How the values were obtained:
FPRL1(LXA4R) [1] = biological target: T1, FPRL1(LXA4R) (Homo sapiens, UniProt P25090); settings: CHO cells transfected with FPRL1(LXA4R); cited from earlier work
T1 construct: host or cells: CHO cells
T1 sequence (P25090 1-351): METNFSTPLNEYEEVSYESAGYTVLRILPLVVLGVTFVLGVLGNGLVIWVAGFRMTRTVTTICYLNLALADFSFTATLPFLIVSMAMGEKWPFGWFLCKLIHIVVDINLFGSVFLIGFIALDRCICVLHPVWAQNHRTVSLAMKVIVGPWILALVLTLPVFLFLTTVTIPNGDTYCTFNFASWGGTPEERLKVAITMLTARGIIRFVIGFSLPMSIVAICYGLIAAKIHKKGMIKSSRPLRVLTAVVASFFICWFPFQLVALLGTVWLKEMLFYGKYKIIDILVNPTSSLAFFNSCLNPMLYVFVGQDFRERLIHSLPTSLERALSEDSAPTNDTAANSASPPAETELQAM

FPRL1(LXA4R) [2] = biological target: T1, FPRL1(LXA4R); settings: CHO cells transfected with FPRL1(LXA4R); cited from earlier work; remark: listed apart in the source
FPRL1 = biological target: T2, FPRL1 (Homo sapiens, UniProt P25090); test: 3H-fMLP binding to FPRL1/293 cells
T2 construct: expressed in transfected cells; host or cells: HEK 293
T2 sequence (P25090 1-351): T1 sequence (P25090 1-351)
Procedure: The cells were then washed with ice-cold PBS (phosphate buffered saline) and filtered onto Whatman discs. The radioactivity associated with the cells was measured with a β counter.
The samples were incubated under constant rotation for 30 minutes at 37° C. After incubation, the samples were filtered onto Whatman GF/C discs (Whatman International Ltd., Kent, UK) on a 12-well manifold followed by extensive washing with ice-cold phosphate-buffered saline (PBS). The discs were air-dried at 65° C., submerged in liquid scintilation cocktail, and counted for β emision.

human neutrophils = settings: N-formylated or N-acetylated; cited from earlier work

CCCCC[C@H](O)/C=C/C=C\C=C\C=C\[C@@H](O)[C@@H](O)CCCC(=O)O [LXA4, lipoxin A4]
binding affinity (FPRL1(LXA4R) [1]): high affinity
GTPase activity and release of esterified arachidonate (FPRL1(LXA4R) [2]): increased GTPase activity and the release of esterified arachidonate

CSCC[C@H](NC=O)C(=O)N[C@@H](CC(C)C)C(=O)N[C@@H](Cc1ccccc1)C(=O)O [^3H-fMLP]
binding to cells (FPRL1): did not significantly bind

Met-Ile-Leu-Phe-Phe-OH (MILFF-OH) [ID; No. 2]
potency in the induction of Ca2+ flux relative to fMLP (human neutrophils): more potent than parental fMLP
